Molecular target: Gamma-secretase
Assay: Inhibition of Gamma-secretase
Assay type: protein-complex assay, Homo sapiens

SMILES	IC50 [nM]
CCN(Cc1ccncc1)C(=O)OCC1CCc2ccccc2N1S(=O)(=O)c1ccc(Cl)cc1 (centres undefined)	88
O=C(NCCc1ccccc1)OCC1CCc2ccccc2N1S(=O)(=O)c1ccc(Cl)cc1 (centres undefined)	1100
CCN(CCC1CCCN1C)C(=O)OCC1CCc2ccccc2N1S(=O)(=O)c1ccc(Cl)cc1 (centres undefined)	253
O=C(NCc1ccc([N+](=O)[O-])cc1)OCC1CCc2ccccc2N1S(=O)(=O)c1ccc(Cl)cc1 (centres undefined)	2960
CCN(CCCN1CCCC1)C(=O)OCC1CCc2ccccc2N1S(=O)(=O)c1ccc(Cl)cc1 (centres undefined)	172
O=C(NCc1ccncc1)OCC1CCc2ccccc2N1S(=O)(=O)c1ccc(Cl)cc1 (centres undefined)	1640
O=C(NCCO)OCC1CCc2ccccc2N1S(=O)(=O)c1ccc(Cl)cc1 (centres undefined)	4490
CN1CCCC1CCNC(=O)OCC1CCc2ccccc2N1S(=O)(=O)c1ccc(Cl)cc1 (centres undefined)	504
O=C(NCCCN1CCCC1)OCC1CCc2ccccc2N1S(=O)(=O)c1ccc(Cl)cc1 (centres undefined)	394
CCCN1CCN(C(=O)OCC2CCc3ccccc3N2S(=O)(=O)c2ccc(Cl)cc2)CC1 (centres undefined)	440
CCN(Cc1ccnc(N)c1)C(=O)OCC1CCc2ccccc2N1S(=O)(=O)c1ccc(Cl)cc1 (centres undefined)	580

Results, then the compound that gave them:

IC50 [nM]	SMILES
680	NC1CCN(C(=O)OCC2CCc3ccccc3N2S(=O)(=O)c2ccc(Cl)cc2)CC1 (centres undefined)
629	CN(C)C1CCN(C(=O)OCC2CCc3ccccc3N2S(=O)(=O)c2ccc(Cl)cc2)CC1 (centres undefined)
219	O=C(OCC1CCc2c(F)cc(F)cc2N1S(=O)(=O)c1ccc(Cl)cc1)N1CCC(N2CCCCC2)CC1 (centres undefined)
56	O=C(OCC1CCc2ccc(F)cc2N1S(=O)(=O)c1ccc(Cl)cc1)N1CCC(N2CCCCC2)CC1 (centres undefined)
290	O=C(OCC1CCc2ccccc2N1S(=O)(=O)c1ccc(Cl)cc1)N1CCC(N2CCCC2)CC1 (centres undefined)
540	O=C(OCC1CCc2ccccc2N1S(=O)(=O)c1ccc(Cl)cc1)N1CCN(C2CCCCC2)CC1 (centres undefined)
39	O=C(OCC1CCc2ccccc2N1S(=O)(=O)c1ccc(Cl)cc1)N1CCC(N2CCCCC2)CC1 (single isomer, unassigned; enantiomer a)
73	O=C(OCC1CCc2ccccc2N1S(=O)(=O)c1ccc(Cl)cc1)N1CCC(N2CCCCC2)CC1 (stereo in doubt; 26)
299	O=C(OCC1CCc2ccccc2N1S(=O)(=O)c1ccc(Cl)cc1)N1CCN(CCO)CC1 (centres undefined)
255	O=C(OCC1CCc2ccccc2N1S(=O)(=O)c1ccc(Cl)cc1)N1CCC(N2CCCCCC2)CC1 (centres undefined)
> 1000	O=C(OCC1CCc2ccccc2N1S(=O)(=O)c1ccc(Cl)cc1)N1CCC(N2CCCCC2)CC1 (single isomer, unassigned; enantiomer b)
217	O=C(OCC1CCc2c(F)ccc(F)c2N1S(=O)(=O)c1ccc(Cl)cc1)N1CCC(N2CCCCC2)CC1 (centres undefined)
> 1000	O=C(OCC1CCc2cc(F)ccc2N1S(=O)(=O)c1ccc(Cl)cc1)N1CCC(N2CCCCC2)CC1 (centres undefined)

Reference: ChEMBL document CHEMBL1138382, “Tetrahydroquinoline sulfonamides as gamma-secretase inhibitors” (Bioorg Med Chem Lett, 2007)
